Where a SMILES comes first, the peptide text is derived from it. Bridges are numbered along the chain shown (N, C = ends). [ ]: non-standard residue; d: D form. Tle = CC(C)(C)[C@H](N)C(=O)O; dNle = CCCC[C@@H](N)C(=O)O; dDab = NCC[C@@H](N)C(=O)O; Nle = CCCC[C@H](N)C(=O)O; Orn = NCCC[C@H](N)C(=O)O; Dab = NCC[C@H](N)C(=O)O

Data on 5 compounds can be found in US10829520B2, “Beta-hairpin peptidomimetics” (POLYPHOR AG, priority 2015, dated 2020).

Format in all cases: cell-based
In data set [1] the test system is Acinetobacter baumannii 872842. The following applies: 872842.
Data set [2] concerns Acinetobacter baumannii DSM 30008. The following applies: DSM 30008. The method in brief:
(§1)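 Using the CLSI reference method, each strain at approx. 10^6 CFU/mL was exposed to serially diluted peptide in MH-II broth with 0.002% P-80. After 18-20 h at 35° C, the lowest concentration showing no visible growth gave the MIC.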

A further data set has as its system Escherichia coli 926415. The following applies: 926415.
Data set [3] relates to Escherichia coli ATCC 25922. The following applies: ATCC 25922. Put shortly: as §1
For data set [4], the system named is Klebsiella pneumoniae 968733. The following applies: 968733.
The test system of data set [5] is Klebsiella pneumoniae SSI #3010. The following applies: SSI #3010. The method in brief:
as §1

Data set [6] concerns Pseudomonas aeruginosa ATCC 27853. The following applies: ATCC 27853. The method in brief:
as §1

Data set [7] has as its system human red blood cells (hRBC). In words: Hemolysis of human red blood cells. The following applies: red cells of human, 1 h, 100 μg/mL. Put shortly:
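Washed fresh human erythrocytes (20% v/v, ~0.9×10^9 cells/mL final) were incubated with peptides at 100 μg/mL for 1 h at 37 °C with shaking. Supernatant OD540 measured; hemolysis expressed as % of 2.5% Triton X-100 lysis, with PBS/0.001% acetic acid as 0%.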

Consider `CCCC[C@@H]1NC(=O)[C@@H]2CCCN2C(=O)[C@H]2CCCN2C(=O)[C@H](CO)NC(=O)[C@H](CO)NC(=O)[C@H](C(C)(C)C)NC(=O)[C@H](CCN)NC(=O)[C@H](Cc2c[nH]c3ccccc23)NC(=O)[C@@H](N)CSSC[C@@H](C(=O)N[C@@H](C)C(=O)N[C@H](CCN)C(=O)N[C@H]2CCNC(=O)[C@H]([C@@H](C)O)NC(=O)[C@H](CCN)NC(=O)[C@H](CCN)NC(=O)[C@H](CC(C)C)NC(=O)[C@@H](Cc3ccccc3)NC(=O)[C@H](CCN)NC2=O)NC(=O)[C@H](CCCN)NC(=O)[C@H](CCN)NC(=O)[C@H](Cc2ccc(O)cc2)NC(=O)[C@H](CO)NC1=O` [Ex. 199] (H-CW[Dab][Tle]SS[dP]P[Nle]SY[Dab][Orn]CA[dDab][Dab][Dab][dF]L[Dab][Dab]T; disulfide 1-14; lactam 17-C), for which, in data set [1], the “Acinetobacter baumannii 872842 MIC” value turned out to be 0.5 µg/mL. Besides, the “Acinetobacter baumannii DSM 30008 MIC” value in data set [2] turned out to be 2 µg/mL. For the same compound, the “Escherichia coli 926415 MIC” value with Escherichia coli 926415 turned out to be 0.5 µg/mL. Moreover, the “Escherichia coli ATCC 25922 MIC” value in data set [3] was determined as 0.25 µg/mL. Besides, in data set [4], the “Klebsiella pneumoniae 968733 MIC” value amounted to 4 µg/mL. For the same compound, the “Klebsiella pneumoniae SSI #3010 MIC” value in data set [5] was determined as 0.5 µg/mL. Moreover, the “Pseudomonas aeruginosa ATCC 27853 MIC” value in data set [6] came to 2 µg/mL. The “Hemolysis at 100 μg/mL” value in data set [7] was less than 1%.

With `CCCC[C@@H]1NC(=O)[C@@H]2CCCN2C(=O)[C@H]2CCCN2C(=O)[C@H](CO)NC(=O)[C@H](CO)NC(=O)[C@H](C(C)(C)C)NC(=O)[C@H](CCN)NC(=O)[C@H](Cc2c[nH]c3ccccc23)NC(=O)[C@@H](N)CSSC[C@@H](C(=O)N[C@H](CCCC)C(=O)N[C@H](CCN)C(=O)N[C@H]2CCNC(=O)[C@H]([C@@H](C)O)NC(=O)[C@H](CCN)NC(=O)[C@H](CCN)NC(=O)[C@H](CC(C)C)NC(=O)[C@@H](Cc3ccccc3)NC(=O)[C@H](CCN)NC2=O)NC(=O)[C@H](CCCN)NC(=O)[C@H](CCN)NC(=O)[C@H](Cc2ccc(O)cc2)NC(=O)[C@H](CO)NC1=O` [Ex. 200] (H-CW[Dab][Tle]SS[dP]P[Nle]SY[Dab][Orn]C[dNle][dDab][Dab][Dab][dF]L[Dab][Dab]T; disulfide 1-14; lactam 17-C), the “Acinetobacter baumannii 872842 MIC” value in data set [1] worked out at 1 µg/mL. The “Acinetobacter baumannii DSM 30008 MIC” value in data set [2] amounted to 0.5 µg/mL. Further, the “Escherichia coli 926415 MIC” value in the data set with Escherichia coli 926415 stood at 0.5 µg/mL. Further, the “Escherichia coli ATCC 25922 MIC” value in data set [3] came to 0.125 µg/mL. In addition, the “Klebsiella pneumoniae 968733 MIC” value in data set [4] amounted to 1 µg/mL. The “Klebsiella pneumoniae SSI #3010 MIC” value in data set [5] is 0.25 µg/mL. Moreover, the “Pseudomonas aeruginosa ATCC 27853 MIC” value in data set [6] came out at 2 µg/mL. Further, the “Hemolysis at 100 μg/mL” value in data set [7] is given as less than 1%.

Consider `CCCC[C@@H]1NC(=O)[C@@H]2CCCN2C(=O)[C@H]2CCCN2C(=O)[C@H](CO)NC(=O)[C@H](CO)NC(=O)[C@H](C(C)(C)C)NC(=O)[C@H](CCN)NC(=O)[C@H](Cc2c[nH]c3ccccc23)NC(=O)[C@@H](N)CSSC[C@@H](C(=O)N[C@@H](Cc2ccc(O)cc2)C(=O)N[C@H](CCN)C(=O)N[C@H]2CCNC(=O)[C@H]([C@@H](C)O)NC(=O)[C@H](CCN)NC(=O)[C@H](CCN)NC(=O)[C@H](CC(C)C)NC(=O)[C@@H](Cc3ccccc3)NC(=O)[C@H](CCN)NC2=O)NC(=O)[C@H](CCCN)NC(=O)[C@H](CCN)NC(=O)[C@H](Cc2ccc(O)cc2)NC(=O)[C@H](CO)NC1=O` [Ex. 201] (H-CW[Dab][Tle]SS[dP]P[Nle]SY[Dab][Orn]CY[dDab][Dab][Dab][dF]L[Dab][Dab]T; disulfide 1-14; lactam 17-C), for which, in data set [1], the “Acinetobacter baumannii 872842 MIC” value was 0.5 µg/mL. Besides, the “Acinetobacter baumannii DSM 30008 MIC” value in data set [2] amounted to 1 µg/mL. The “Escherichia coli 926415 MIC” value in the data set on Escherichia coli 926415 amounted to 0.5 µg/mL. For the same compound, the “Escherichia coli ATCC 25922 MIC” value in data set [3] was 0.25 µg/mL. The “Klebsiella pneumoniae 968733 MIC” value in data set [4] stood at 8 µg/mL. Also, the “Klebsiella pneumoniae SSI #3010 MIC” value in data set [5] came to 1 µg/mL. Besides, the “Pseudomonas aeruginosa ATCC 27853 MIC” value in data set [6] came out at 1 µg/mL. The “Hemolysis at 100 μg/mL” value in data set [7] is less than 1%.

In the case of `CCCC[C@@H]1NC(=O)[C@@H]2CCCN2C(=O)[C@H]2CCCN2C(=O)[C@H](CO)NC(=O)[C@H](CO)NC(=O)[C@H](C(C)(C)C)NC(=O)[C@H](CCN)NC(=O)[C@H](Cc2c[nH]c3ccccc23)NC(=O)[C@@H](N)CSSC[C@@H](C(=O)N[C@H](Cc2c[nH]c3ccccc23)C(=O)N[C@@H](CCN)C(=O)N[C@H]2CCNC(=O)[C@H]([C@@H](C)O)NC(=O)[C@H](CCN)NC(=O)[C@H](CCN)NC(=O)[C@H](CC(C)C)NC(=O)[C@@H](Cc3ccccc3)NC(=O)[C@H](CCN)NC2=O)NC(=O)[C@H](CCCN)NC(=O)[C@H](CCN)NC(=O)[C@H](Cc2ccc(O)cc2)NC(=O)[C@H](CO)NC1=O` [Ex. 202] (H-CW[Dab][Tle]SS[dP]P[Nle]SY[Dab][Orn]C[dW][Dab][Dab][Dab][dF]L[Dab][Dab]T; disulfide 1-14; lactam 17-C), the “Acinetobacter baumannii 872842 MIC” value in data set [1] was 0.5 µg/mL. Besides, the “Acinetobacter baumannii DSM 30008 MIC” value in data set [2] came to 1 µg/mL. Also, the “Escherichia coli 926415 MIC” value with Escherichia coli 926415 is 0.5 µg/mL. Besides, in data set [3], the “Escherichia coli ATCC 25922 MIC” value worked out at 0.25 µg/mL. The “Klebsiella pneumoniae 968733 MIC” value in data set [4] came to 2 µg/mL. Moreover, the “Klebsiella pneumoniae SSI #3010 MIC” value in data set [5] is 1 µg/mL. Also, in data set [6], the “Pseudomonas aeruginosa ATCC 27853 MIC” value worked out at 1 µg/mL. Also, in data set [7], the “Hemolysis at 100 μg/mL” value is given as 2%.

On to `CCCC[C@@H]1NC(=O)[C@@H]2CCCN2C(=O)[C@H]2CCCN2C(=O)[C@H](CO)NC(=O)[C@H](CO)NC(=O)[C@H](C(C)(C)C)NC(=O)[C@H](CCN)NC(=O)[C@H](Cc2c[nH]c3ccccc23)NC(=O)[C@@H](N)CSSC[C@@H](C(=O)N[C@@H](CCC(N)=O)C(=O)N[C@H](CCN)C(=O)N[C@H]2CCNC(=O)[C@H]([C@@H](C)O)NC(=O)[C@H](CCN)NC(=O)[C@H](CCN)NC(=O)[C@H](CC(C)C)NC(=O)[C@@H](Cc3ccccc3)NC(=O)[C@H](CCN)NC2=O)NC(=O)[C@H](CCCN)NC(=O)[C@H](CCN)NC(=O)[C@H](Cc2ccc(O)cc2)NC(=O)[C@H](CO)NC1=O` [Ex. 203] (H-CW[Dab][Tle]SS[dP]P[Nle]SY[Dab][Orn]CQ[dDab][Dab][Dab][dF]L[Dab][Dab]T; disulfide 1-14; lactam 17-C), for which the “Acinetobacter baumannii 872842 MIC” value in data set [1] came out at 0.5 µg/mL. Moreover, the “Acinetobacter baumannii DSM 30008 MIC” value in data set [2] was determined as 2 µg/mL. Further, the “Escherichia coli 926415 MIC” value in the data set with Escherichia coli 926415 worked out at 0.25 µg/mL. For the same compound, the “Escherichia coli ATCC 25922 MIC” value in data set [3] came out at 0.5 µg/mL. Besides, in data set [4], the “Klebsiella pneumoniae 968733 MIC” value worked out at 4 µg/mL. Also, in data set [5], the “Klebsiella pneumoniae SSI #3010 MIC” value is 1 µg/mL. Moreover, the “Pseudomonas aeruginosa ATCC 27853 MIC” value in data set [6] was 1 µg/mL. Also, the “Hemolysis at 100 μg/mL” value in data set [7] is given as less than 1%.
